Measured values: ChEMBL document CHEMBL6121057, “Discovery of an Orally Bioavailable STING Inhibitor with In Vivo Anti-Inflammatory Activity in Mice with STING-Mediated Inflammation” (J Med Chem, 2025)

How the values were obtained:
[1] = Metabolic stability in human liver microsomes assessed as intrinsic clearance; format: ADME, Microsome; settings: read-out: CLH
[2] = Metabolic stability in human liver microsomes assessed as half life; format: ADME, Microsome
[3] = Oral bioavailability in Sprague-Dawley rat at 10 mg/kg measured […] by LC-MS/MS analysis; format: ADME, organism-based; settings: in vivo
[4] = Tmax in Sprague-Dawley rat at 10 mg/kg, po measured […] by LC-MS/MS analysis; format: ADME, organism-based; settings: in vivo
[5] = Tmax in Sprague-Dawley rat at 2 mg/kg, iv measured […] by LC-MS/MS analysis; format: ADME, organism-based; settings: in vivo
[6] = AUC (0 to t) in Sprague-Dawley rat at 2 mg/kg, iv measured upto 60 mins by LC-MS/MS analysis; format: ADME, organism-based; settings: in vivo
[7] = Half life in Sprague-Dawley rat at 2 mg/kg, iv measured upto 60 mins by LC-MS/MS analysis; format: ADME, organism-based; settings: in vivo
[8] = AUC (0 to t) in Sprague-Dawley rat at 10 mg/kg, po measured upto 60 mins by LC-MS/MS analysis; format: ADME, organism-based; settings: in vivo
[9] = Cmax in Sprague-Dawley rat at 10 mg/kg, po measured […] by LC-MS/MS analysis; format: ADME, organism-based; settings: in vivo
[10] = Cmax in Sprague-Dawley rat at 2 mg/kg, iv measured […] by LC-MS/MS analysis; format: ADME, organism-based; settings: in vivo

Row | SMILES | CLint scaled [1] | half-life [2] | bioavailability [3] | Tmax [4] | Tmax [5] | AUC(0-t) at 1 h [6] | half-life [7] | AUC(0-t) at 1 h [8] | Cmax [9] | Cmax [10]
1 | CC(C)(C)c1ccc(NC(=O)Nc2c[nH]c3ccc(F)cc23)cc1 | 76.3 mL/min/kg | 16.3 min |  |  |  |  |  |  |  | 
2 | CCc1ccc(NC(=O)Nc2c[nH]c3ccccc23)cc1 | 143 mL/min/kg | 6.2 min | 0.6% | 48 min | 6 min | 387 ng·h/mL | 12 min | 12 ng·h/mL | 8 ng/mL | 1320 ng/mL
